Laboratory results reported in US7642270B2, “5-oxo-5,8-dihydro-pyrido-pyrimidine as inhibitors of c-fms kinase” (Janssen Pharmaceutica N.V., priority 2005, dated 2010).
pIC50: −log10 of the molar value.

How the values were obtained:
[1] = target: c-fms (Homo sapiens, UniProt P07333); assay: c-fms autophosphorylation, fluorescence polarization competition immunoassay; format: biochemical; conditions: 10 nM c-fms, 1 mM ATP, 5 mM MgCl2, 45 min room temperature; averages of three independent measurements; read-out: c-fms Autophosphorylation IC50
[2] = target: CSF-1R (Homo sapiens, UniProt P07333); assay: Peptide (non-phosphorylated) assay: fluorescence polarization competition immunoassay of CSF-1R phosphorylation of synthetic CSF-1R555-568 peptide; format: biochemical; conditions: 0.7 nM CSF-1R, 308 μM […], 1 mM ATP, 5 mM MgCl2, 80 min room temperature; mean of at least three determinations; read-out: c-fms Peptide IC50
Description: Peptide (Non-Phosphorylated) Assay
The kinase reaction was initiated by adding 1 μL of 10 mM ATP in assay buffer. […] Positive and negative control wells were included on each plate, where 4% DMSO in assay buffer was substituted for the compound; in addition, positive control wells received 1.2 μL of 50 mM EDTA before the start of the reaction.
The plates were covered and incubated at room temperature for 80 min. Reactions were stopped by addition of 1.2 μL of 50 mM EDTA. Each well then received 10 μL of a 1:1:3 mixture of 10× anti-phosphotyrosine antibody, 10×PTK green tracer, and FP dilution buffer, respectively (Cat. # P2837, Invitrogen, Carlsbad, Calif.). The plates were covered, incubated for 30 min at room temperature, and the fluorescence polarization was read on an Analyst plate reader (Molecular Devices).

Chain of c-fms (P07333 20-972): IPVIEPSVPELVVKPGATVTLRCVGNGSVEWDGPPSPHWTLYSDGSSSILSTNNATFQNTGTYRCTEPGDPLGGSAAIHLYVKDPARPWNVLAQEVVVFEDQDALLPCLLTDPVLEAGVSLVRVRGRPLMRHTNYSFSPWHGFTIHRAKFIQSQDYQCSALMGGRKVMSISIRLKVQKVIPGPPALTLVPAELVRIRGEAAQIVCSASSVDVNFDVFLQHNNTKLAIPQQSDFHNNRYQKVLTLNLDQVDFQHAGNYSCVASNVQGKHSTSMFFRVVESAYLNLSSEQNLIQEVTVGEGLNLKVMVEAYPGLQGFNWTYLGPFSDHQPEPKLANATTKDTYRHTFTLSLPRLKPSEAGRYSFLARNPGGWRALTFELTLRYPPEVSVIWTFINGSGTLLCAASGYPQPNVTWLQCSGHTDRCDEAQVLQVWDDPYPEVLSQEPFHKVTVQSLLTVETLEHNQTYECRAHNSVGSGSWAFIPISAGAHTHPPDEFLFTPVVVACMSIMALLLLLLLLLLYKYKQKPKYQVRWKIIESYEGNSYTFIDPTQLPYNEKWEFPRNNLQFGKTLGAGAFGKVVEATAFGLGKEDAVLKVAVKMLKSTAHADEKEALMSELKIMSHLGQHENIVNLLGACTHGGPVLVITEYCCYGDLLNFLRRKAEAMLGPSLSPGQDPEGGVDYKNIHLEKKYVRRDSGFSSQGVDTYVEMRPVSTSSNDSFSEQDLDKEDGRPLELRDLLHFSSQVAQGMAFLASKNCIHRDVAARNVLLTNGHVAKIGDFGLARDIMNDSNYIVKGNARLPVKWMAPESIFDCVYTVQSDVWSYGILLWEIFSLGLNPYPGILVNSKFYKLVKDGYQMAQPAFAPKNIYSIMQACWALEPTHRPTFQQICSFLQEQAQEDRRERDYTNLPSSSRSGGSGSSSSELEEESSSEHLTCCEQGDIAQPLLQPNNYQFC
Chain of CSF-1R (P07333 20-972): as above

SMILES	pIC50 [1]	pIC50 [2]
CNC(=O)c1cn(-c2ccc3c(c2)CCC3)c2nc(Nc3ccc(OCC(O)CN(C)C)cc3)ncc2c1=O (stereo not drawn) [Cpd 11, 2-[4-(3-Dimethylamino-2-hydroxy-propoxy)-phenylamino]-8-indan-5-yl-5-oxo-5,8-dihydro-pyrido[2,3-d]pyrimidine-6-carboxylic acid methylamide]	7.34	8.25
CN(C)CC(O)COc1ccc(Nc2ncc3c(=O)c(C(N)=O)cn(-c4ccc5c(c4)CCC5)c3n2)cc1 (stereo not drawn) [Cpd 10, 2-[4-(3-Dimethylamino-2-hydroxy-propoxy)-phenylamino]-8-indan-5-yl-5-oxo-5,8-dihydro-pyrido[2,3-d]pyrimidine-6-carboxylic acid amide]	7.89	8.57
CN1CCN(c2ccc(Nc3ncc4c(=O)c(C(N)=O)cn(-c5ccc6c(c5)CCC6)c4n3)cc2)CC1 [Cpd 7, 8-Indan-5-yl-2-[4-(4-methyl-piperazin-1-yl)-phenylamino]-5-oxo-5,8-dihydro-pyrido[2,3-d]pyrimidine-6-carboxylic acid amide]	7.89	8.41
CNC(=O)c1cn(-c2ccc3c(c2)CCC3)c2nc(Nc3ccc(CCN4CCN(C)CC4)cc3)ncc2c1=O [Cpd 47, 8-Indan-5-yl-2-{4-[2-(4-methyl-piperazin-1-yl)-ethyl]-phenylamino}-5-oxo-5,8-dihydro-pyrido[2,3-d]pyrimidine-6-carboxylic acid methyl amide]	7.82	8.89
CN1CCN(Cc2cccc(Nc3ncc4c(=O)c(C(N)=O)cn(-c5ccc6c(c5)CCC6)c4n3)c2)CC1 [Cpd 23, 8-Indan-5-yl-2-[3-(4-methyl-piperazin-1-ylmethyl)-phenylamino]-5-oxo-5,8-dihydro-pyrido[2,3-d]pyrimidine-6-carboxylic acid amide]	7.85	8.82
CNC(=O)c1cn(-c2ccc3c(c2)CCC3)c2nc(Nc3ccc(C4CCNCC4)cc3)ncc2c1=O [Cpd 50, 8-Indan-5-yl-5-oxo-2-(4-piperidin-4-yl-phenylamino)-5,8-dihydro-pyrido[2,3-d]pyrimidine-6-carboxylic acid methyl amide]	7.82	9.01

These reach a higher pIC50 [1]. Values come first.

pIC50 [1]	pIC50 [2]	SMILES
7.92	8.37	CN(C)c1cccc(Nc2ncc3c(=O)c(C(N)=O)cn(-c4ccc5c(c4)CCC5)c3n2)c1 [Cpd 16, 2-(3-Dimethylamino-phenylamino)-8-indan-5-yl-5-oxo-5,8-dihydro-pyrido[2,3-d]pyrimidine-6-carboxylic acid amide]
8.00	8.96	CNC(=O)c1cn(-c2ccc3c(c2)CCC3)c2nc(Nc3cccc(N4CC(C)NC(C)C4)c3)ncc2c1=O (stereo not drawn) [Cpd 56, 2-[3-(3,5-Dimethyl-piperazin-1-yl)-phenylamino]-8-indan-5-yl-5-oxo-5,8-dihydro-pyrido[2,3-d]pyrimidine-6-carboxylic acid methyl amide]
8.10	9.34	CNC(=O)c1cn(-c2ccc3c(c2)CCC3)c2nc(Nc3cccc(N4CCNCC4)c3)ncc2c1=O [Cpd 53, 8-Indan-5-yl-5-oxo-2-(3-piperazin-1-yl-phenylamino)-5,8-dihydro-pyrido[2,3-d]pyrimidine-6-carboxylic acid methyl amide]
8.10	9.28	CNC(=O)c1cn(-c2ccc3c(c2)CCC3)c2nc(Nc3ccc(N4CC(C)NC(C)C4)cc3)ncc2c1=O (stereo not drawn) [Cpd 44, 2-[4-(3,5-Dimethyl-piperazin-1-yl)-phenylamino]-8-indan-5-yl-5-oxo-5,8-dihydro-pyrido[2,3-d]pyrimidine-6-carboxylic acid methyl amide]
8.22	9.29	CC1CN(c2cccc(Nc3ncc4c(=O)c(C(N)=O)cn(-c5ccc6c(c5)CCC6)c4n3)c2)CC(C)N1 (stereo not drawn) [Cpd 55, 2-[3-(3,5-Dimethyl-piperazin-1-yl)-phenylamino]-8-indan-5-yl-5-oxo-5,8-dihydro-pyrido[2,3-d]pyrimidine-6-carboxylic acid amide]
8.30	9.38	NC(=O)c1cn(-c2ccc3c(c2)CCC3)c2nc(Nc3cccc(N4CCNCC4)c3)ncc2c1=O [Cpd 52, 8-Indan-5-yl-5-oxo-2-(3-piperazin-1-yl-phenylamino)-5,8-dihydro-pyrido[2,3-d]pyrimidine-6-carboxylic acid amide]
